The source of these data is PubChem BioAssay (NCI).

Among the test systems are OVCAR-5 ovarian; UO-31 renal; HS 578T breast; SR leukemia; T-47D breast; K-562 leukemia; IGROV1 ovarian; M14 melanoma; HL-60(TB) leukemia; UACC-257 melanoma.
What all share (assay): NCI tumour cell line growth inhibition, 48 h

“And” between values parts separate entries of the source, which are not always exact repeats. Equal values may be shown once.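 Protocol summary: plate cells (96-well), add compound at 5 concentrations, incubate 48 h, interpolate endpoints linearly. The concentration for 50% growth inhibition is given as GI50. TGI marks complete inhibition of growth.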

Take `CC(CC(=O)O)C(C(=O)O)C(=O)O` (centres undefined): the TGI in the assay with OVCAR-5 ovarian, with UO-31 renal, in the assay on HS 578T breast, with SR leukemia, in the assay with T-47D breast and in the assay with K-562 leukemia was > 100 µM each time. Moreover, the TGI in the assay on IGROV1 ovarian, in the assay with M14 melanoma, with HL-60(TB) leukemia and in the assay with UACC-257 melanoma was > 100 µM throughout.
Regarding `O=C(CC(O)(C(F)(F)F)C(F)(F)F)c1cc(CC(=O)C(O)(C(F)(F)F)C(F)(F)F)cc(CC(=O)C(O)(C(F)(F)F)C(F)(F)F)c1`, the TGI with OVCAR-5 ovarian is > 9.25 µM; in the assay on UO-31 renal, 3.84 µM; in the assay on HS 578T breast it was > 10 µM; in the assay with SR leukemia, > 10 µM; in the assay with T-47D breast it was 4.26 µM; in the assay with K-562 leukemia, > 10 µM. The TGI in the assay on IGROV1 ovarian was 4.15 µM; in the assay with M14 melanoma, > 9.09 µM; with HL-60(TB) leukemia it was > 10 µM; in the assay with UACC-257 melanoma it was 4.56 µM.
For the molecule `CCN1CCN=c2c3cc(OC)ccc3n3cnc4ccc1c2c43`, the TGI in the assay with OVCAR-5 ovarian was 0.929 µM; in the assay on UO-31 renal, 0.385 µM; with HS 578T breast it was 0.866 µM; in the assay on SR leukemia, 0.158 µM; in the assay on T-47D breast, 3.06 µM; in the assay on K-562 leukemia it was 0.4 µM. Moreover, the TGI with IGROV1 ovarian was determined as 7.62 µM; with M14 melanoma, 1.04 µM; in the assay on HL-60(TB) leukemia, 0.483 µM; in the assay with UACC-257 melanoma, 2.05 µM.
Consider `Cn1cc(C2=C(c3cn(C)c4cc(C(N)=O)ccc34)C(=O)NC2=O)c2ccccc21`, for which the GI50 is 11.1 µM in the assay on OVCAR-5 ovarian; 1.81 µM in the assay on UO-31 renal; 0.687 µM in the assay with HS 578T breast; 0.656 µM with SR leukemia; 1.98 µM in the assay on T-47D breast; 0.857 µM in the assay with K-562 leukemia. The GI50 in the assay with IGROV1 ovarian was 2.48 µM; in the assay with M14 melanoma, 1.08 µM; in the assay on HL-60(TB) leukemia it was 0.769 µM; in the assay with UACC-257 melanoma, 3.66 µM. Further, the TGI in the assay on OVCAR-5 ovarian was > 25 µM; in the assay with UO-31 renal it was > 20.1 µM; in the assay with HS 578T breast it was 4.02 µM; with SR leukemia, > 22.8 µM; with T-47D breast, > 25 µM; in the assay with K-562 leukemia, > 25 µM. The TGI is > 19.7 µM in the assay on IGROV1 ovarian, > 25 µM in the assay on M14 melanoma, 3.48 µM in the assay on HL-60(TB) leukemia and > 25 µM in the assay with UACC-257 melanoma.
On to `Cc1cn2c(/C=C3\C(=O)Nc4ccc(O)cc43)c(-c3ccc(Cl)cc3)nc2s1`, for which the GI50 was 21.2 µM in the assay with OVCAR-5 ovarian; 5.37 µM in the assay on UO-31 renal; 21.1 µM in the assay with HS 578T breast; 2.59 µM in the assay with SR leukemia; 8.96 µM in the assay on T-47D breast; 10.4 µM with K-562 leukemia. Moreover, the GI50 in the assay on IGROV1 ovarian was 5.56 µM; with M14 melanoma, 17 µM; in the assay on HL-60(TB) leukemia, 14.4 µM; in the assay with UACC-257 melanoma, 21.3 µM. Besides, the TGI in the assay with OVCAR-5 ovarian was found to be 51.4 µM; with UO-31 renal, 59.9 µM; in the assay on HS 578T breast it was 84.1 µM; in the assay with SR leukemia, 7.63 µM; in the assay with T-47D breast, 30.2 µM; in the assay on K-562 leukemia, 40.9 µM. Further, the TGI in the assay on IGROV1 ovarian was 23.9 µM; in the assay with M14 melanoma, > 100 µM; in the assay on HL-60(TB) leukemia, 40.7 µM; with UACC-257 melanoma it was > 100 µM.
As for `O=C(c1c(F)ccc(NS(=O)(=O)N2CC[C@@H](F)C2)c1F)c1c[nH]c2ncc(-c3cnc(C4CC4)nc3)cc12`, the GI50 in the assay with OVCAR-5 ovarian was > 6.42 µM and 9.04 µM; with UO-31 renal, 3.41 µM and 3.79 µM; with HS 578T breast, 2.33 µM and 2.06 µM; with SR leukemia, 5.35 µM and 3.93 µM; with T-47D breast, 2.91 µM and 2.43 µM; in the assay on K-562 leukemia it was 3.68 µM and 3.12 µM. Besides, the GI50 was 2.35 µM and 2.14 µM in the assay on IGROV1 ovarian; 0.00625 µM and < 0.01 µM with M14 melanoma; 7.69 µM and 6.11 µM with HL-60(TB) leukemia; 0.00965 µM and < 0.01 µM in the assay with UACC-257 melanoma. For the same molecule, the TGI in the assay on OVCAR-5 ovarian is > 10 µM and 46.4 µM; with UO-31 renal it was > 10 µM and 25.5 µM; in the assay on HS 578T breast, > 10 µM and 15.7 µM; in the assay on SR leukemia, > 10 µM and 79.6 µM; in the assay with T-47D breast, > 10 µM and 16.5 µM; in the assay on K-562 leukemia it was > 100 µM. In addition, the TGI was > 10 µM and 17 µM in the assay with IGROV1 ovarian; > 4.09 µM and 10.4 µM in the assay on M14 melanoma; > 10 µM and 41.3 µM in the assay with HL-60(TB) leukemia; 0.174 µM and 0.0739 µM in the assay on UACC-257 melanoma.
On to `C[C@H]1Oc2cc(cnc2N)-c2c(nn(C)c2C#N)CN(C)C(=O)c2ccc(F)cc21`, for which the GI50 with OVCAR-5 ovarian was 5.24 µM; in the assay on UO-31 renal it was 13.9 µM; in the assay with HS 578T breast it was 18.3 µM; in the assay with T-47D breast, 36.2 µM; in the assay with K-562 leukemia, > 100 µM; in the assay on IGROV1 ovarian, 28.1 µM. The GI50 with M14 melanoma was 48.9 µM; in the assay on HL-60(TB) leukemia, > 100 µM; in the assay with UACC-257 melanoma it was 25.8 µM. The TGI with OVCAR-5 ovarian is > 100 µM; in the assay with UO-31 renal it was 60.2 µM; in the assay on HS 578T breast, > 100 µM; with SR leukemia, > 100 µM; in the assay on T-47D breast it was > 100 µM; in the assay on K-562 leukemia it was > 100 µM. Further, the TGI in the assay with IGROV1 ovarian, in the assay on M14 melanoma, in the assay with HL-60(TB) leukemia and in the assay on UACC-257 melanoma was > 100 µM throughout.
Take `O=C(c1ccc(Cl)cc1)c1cnc(Nc2ccccc2Cl)s1`: the TGI in the assay on OVCAR-5 ovarian is 95.5 µM; in the assay with UO-31 renal, 50.1 µM; in the assay on HS 578T breast, 68.8 µM; with SR leukemia it was > 100 µM; in the assay on T-47D breast, 47.9 µM; in the assay on K-562 leukemia, > 100 µM. Moreover, the TGI is 74.2 µM in the assay on IGROV1 ovarian, > 31.6 µM in the assay on M14 melanoma, > 100 µM with HL-60(TB) leukemia and 47.2 µM with UACC-257 melanoma.
For `Nc1c(C(=O)Nc2cccc(Br)c2)sc2nc3c(cc12)C(=O)CCC3`, the GI50 in the assay with OVCAR-5 ovarian is 6.82 µM; in the assay on UO-31 renal it was 3.07 µM; with HS 578T breast it was 0.597 µM; in the assay with SR leukemia, 0.525 µM; with T-47D breast it was 2.13 µM; in the assay with K-562 leukemia, 0.14 µM. Moreover, the GI50 was 1.73 µM with IGROV1 ovarian, 0.568 µM in the assay with M14 melanoma, 0.408 µM in the assay with HL-60(TB) leukemia and > 100 µM with UACC-257 melanoma. Besides, the TGI in the assay on OVCAR-5 ovarian was > 100 µM; in the assay with UO-31 renal, > 100 µM; in the assay on HS 578T breast, 83.5 µM; with SR leukemia, > 100 µM; in the assay on T-47D breast it was > 100 µM; with K-562 leukemia, > 100 µM. Besides, the TGI with IGROV1 ovarian, in the assay on M14 melanoma, in the assay with HL-60(TB) leukemia and with UACC-257 melanoma was > 100 µM throughout.
